One data set addresses T1, MrgprA4 (Mus musculus, UniProt Q91WW2).
T1 construct: expressed in transfected cells; host or cells: HEK293
T1 sequence (Q91WW2 1-313): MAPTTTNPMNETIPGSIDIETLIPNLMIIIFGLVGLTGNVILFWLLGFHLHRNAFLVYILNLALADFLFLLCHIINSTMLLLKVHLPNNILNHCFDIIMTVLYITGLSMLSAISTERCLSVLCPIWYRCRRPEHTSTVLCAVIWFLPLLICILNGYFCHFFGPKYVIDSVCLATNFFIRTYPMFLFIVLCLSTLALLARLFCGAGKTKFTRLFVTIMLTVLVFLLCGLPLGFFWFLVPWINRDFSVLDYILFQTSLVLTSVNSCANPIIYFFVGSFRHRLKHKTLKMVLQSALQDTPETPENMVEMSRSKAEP
The data set can be described thus: Calcium imaging of HEK293 cells transfected with Mrgpr-GFP constructs. The class given is cell-based. As to conditions: NPFF 2 μM. The text has this: (§1) Each of the twelve Mrgprs that were deleted in Mrgpr-clusterΔ^−/− mice were cloned into a mammalian expression vector (FIG. 1A), and transfected individually into human embryonic kidney (HEK) 293 cells. By fusing green fluorescent protein (GFP) to the C-termini of the Mrgpr coding sequences, both transfected cells and the proper membrane localization of the receptors was visualized. […] Increased [Ca^2+]i resulting from activation of the receptors was monitored by calcium imaging.
(§2) HEK293 cells were transfected with Mrgpr-expression constructs using Lipofectamine 2000 (Invitrogen) according to the manufacturer's protocol.

The target in a further data set is T2, MrgprC11 (Mus musculus, UniProt Q8CIP3).
T2 construct: expressed in transfected cells; host or cells: HEK293
T2 sequence (Q8CIP3 1-322): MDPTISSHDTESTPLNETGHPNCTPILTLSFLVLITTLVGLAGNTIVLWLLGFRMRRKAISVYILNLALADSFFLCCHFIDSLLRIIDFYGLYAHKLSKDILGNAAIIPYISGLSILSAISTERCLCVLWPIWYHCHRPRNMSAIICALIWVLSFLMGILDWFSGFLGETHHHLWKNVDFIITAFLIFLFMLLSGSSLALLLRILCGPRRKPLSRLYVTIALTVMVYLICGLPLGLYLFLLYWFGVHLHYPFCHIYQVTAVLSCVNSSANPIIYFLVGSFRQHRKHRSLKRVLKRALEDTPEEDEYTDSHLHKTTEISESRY
The data set is described as above. The class given is cell-based. To be noted: BAM8-22 2 μM.
From the text: as §1, §2

A further data set relates to DRG neurons. The data set can be described thus: Calcium imaging of cultured dissociated DRG neurons. Format: cell-based, mouse.
The conditions of data set [1]: cited from earlier work.
The next data set concerns the target T3, MrgprA1 (Mus musculus, UniProt Q91WW5).
T3 sequence (Q91WW5 1-304): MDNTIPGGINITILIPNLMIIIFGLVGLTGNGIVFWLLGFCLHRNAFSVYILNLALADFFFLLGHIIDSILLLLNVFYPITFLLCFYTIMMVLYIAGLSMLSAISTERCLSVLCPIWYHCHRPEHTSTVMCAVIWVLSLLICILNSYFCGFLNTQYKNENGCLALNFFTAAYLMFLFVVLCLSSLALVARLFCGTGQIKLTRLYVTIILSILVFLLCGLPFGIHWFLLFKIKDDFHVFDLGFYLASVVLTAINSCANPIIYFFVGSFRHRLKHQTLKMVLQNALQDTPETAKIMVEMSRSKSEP
Put plainly: Rescue: Mrgpr-clusterΔ-/- DRG neurons electroporated with Mrgpr construct. Set-up: expressed in transfected cells; host or cells: dissociated adult DRG neurons of Mrgpr-cluster-deleted mice. The class given is cell-based.

Structures are written as SMILES. Several values for one entry are separate records, joined by “and”; a condition that tells them apart may be missing. Equal entries are not always repeated.

Data on one compound can be found in patent US9771592B2, “Methods and compositions for treating or preventing pruritis” (The Johns Hopkins University, priority 2008, dated 2017).

Protocol for MrgprA1: To determine whether MrgprA3 or MrgprX1 can rescue the phenotypes of DRG neurons from Mrgpr-clusterΔ^−/− mice, the Mrgpr expression constructs used in the heterologous studies were electroporated into dissociated adult DRG neurons from these mice. After 24 hour in culture, expression and membrane localization of the transfected Mrgprs in the mutant neurons could be readily visualized by GFP (FIG. 8G).

As to `CCN(CC)CCCC(C)Nc1ccnc2cc(Cl)ccc12` (stereo not drawn) [CQ, Chloroquine], on MrgprA4, the “response of MrgprA4-expressing cells” value is on record as “insensitive”. Further, the “response of MrgprC11-expressing cells” value on MrgprC11 is given as “failed to respond”. Further, the DRG neurons responding entry with DRG neurons (Mrgpr-clusterΔ-/- mice) is given as “none of the neurons”. Moreover, the “percentage of DRG neurons responding with increased [Ca2+]i” value with DRG neurons (WT mice, CQ 1 mM, BAM8-22 2 μM) was ~4.4% and 4-5%. In addition, in the data set on DRG neurons (WT neurons), the “reduction of calcium responses on sequential application” value is recorded as around 20%. Besides, in data set [1] (plasma), the “concentration in patient plasma” value is recorded as “micromolar range”. Besides, the “concentration reached in skin and other pigmented tissues” value in data set [1] (skin) is given as “high micromolar to millimolar concentrations”. Besides, on MrgprA1, the “MrgprA1-electroporated neurons eliciting a few APs” value is 3 out of 7 and the “[Ca2+]i response of MrgprA1-electroporated mutant neurons” value is listed as “only a small portion responded”.
